Converted amounts (≈) assume the structure as drawn. Read-outs that look alike come from different tables or passages of the source.
How the values were obtained:
fungal (fACC2) ACC2 = fungal (fACC2) ACC2 (UniProt Q00955); conditions: read-out: fACC2 IC50; fungal ACC2, ADP-Glo
Procedure: An exemplary procedure for the in vitro ACC inhibition assay, which can be used to determine the inhibitory action of compounds of the invention toward either human (hACC2) or fungal (fACC2) ACC2, follows. The ADP-Glo™ Kinase Assay kit from Promega was used. The ADP-Glo™ Kinase Assay is a luminescent ADP detection assay to measure enzymatic activity by quantifying the amount of ADP produced during an enzyme reaction. The assay is performed in two steps; first, after the enzyme reaction, an equal volume of ADP-Glo™ Reagent is added to terminate the reaction and deplete the remaining ATP. Second, the Kinase Detection Reagent is added to simultaneously convert ADP to ATP and allow the newly synthesized ATP to be measured using a luciferase/luciferin reaction. Luminescence can be correlated to ADP concentrations by using an ATP-to-ADP conversion curve. The detailed procedure is as follows. 50 μL of the compound being tested (600 μM in DMSO) was added to a 384-well dilution plate. The compound was diluted 1:3 in succession in DMSO for each row for 11 wells. 0.5 μL ACC2 working solution was added to 384-well white Optiplate assay plate. 0.5 μL diluted compound solution in each column from step 2 was added to assay plate, each row containing 2 replicates. […] The plates were incubated at room temperature for 15 minutes. 5 μL substrate working solution was added to each well to initiate reaction. Final ACC2 reaction concentrations consist of: 5 nM ACC2, 20 μM ATP, 20 μM acetyl-CoA, 12 mM NaHCO3, 0.01% Brij35, 2 mM DTT, 5% DMSO, test compound concentrations: 30 μM, 10 μM, 3.33 μM, 1.11 μM, 0.37 μM, 0.123 μM, 0.0411 μM, 0.0137 μM, 0.00457 μM, 0.00152 μM, and 0.00051 μM. Plates were incubated at room temperature for 60 minutes. 10 μL ADP glo reagent was added. Plates were incubated at room temperature for 40 minutes. 20 μL kinase detection reagent was added. Plates were incubated at room temperature for 40 minutes, and then read on a Perkin Elmer EnVision 2104 plate reader for luminescence as Relative Light Units (RLU).
Data for each concentration, as well as the positive and negative controls were averaged, and the standard deviation calculated. Percent inhibition was calculated by the formula: 100×(average negative control−compound)/(average negative control−average positive control). The IC50 for each compound was calculated by fitting the data with a non-linear regression equation: Y=Bottom+(Top-Bottom)/(1+10^((Log IC50−X)*Hill Slope)), where X is the log of compound concentration and Y is percent inhibition.
Compounds having an activity designated as “AA” provided an IC50 0.0006-0.003 μM; provided an “A” provided an IC50 0.003-0.01 μM; compounds having an activity designated as “B” provided an IC50 0.01-0.04 μM; and compounds having an activity designated as “C” provided an IC50>0.04 μM IC50. “NA” stands for “not assayed.”

[1] = system: Fusarium moniliforme (Fm); assay: Growth inhibition assay of fungal pathogens; type: cell-based; conditions: for IC90: Fusarium verticillioides, 48 h, read-out: Concentration at 90% Inhibition Fm
Outline: (§1)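 Liquid-culture assay in which test compounds are applied at three final concentrations (50, 10, 2 ppm or 2, 0.4, 0.08 ppm). Inoculum levels follow 48 h growth curves for each fungus. Growth is monitored by OD600 and by eye, and the 48 h values give % inhibition against DMSO.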

Septoria tritici (St) = assay: Growth inhibition assay of fungal pathogens; type: cell-based; conditions: for IC90: Zymoseptoria tritici, read-out: Concentration at 90% Inhibition St
Outline: (§2)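 Percent growth inhibition was derived from 48 h OD600 and visual scores relative to 2% DMSO, with blank background subtraction. Fungi were grown from spores in 17% V8 liquid medium, R. solani from 1.5 mm plugs in ¼ PDB, with compound at final 50/10/2 or 2/0.4/0.08 ppm.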

Rhizoctonia solani (Rs) = assay: Growth inhibition assay of fungal pathogens; type: cell-based; conditions: 48 h, read-out: Concentration at 90% Inhibition Rs
Outline: as §1

Diplodia maydis (Dm) = assay: Growth inhibition assay of fungal pathogens; type: cell-based; conditions: Stenocarpella maydis, 48 h, read-out: Concentration at 90% Inhibition Dm
Outline: as §1

[2] = system: Phytophthora capsici (Pc); assay: Growth inhibition assay of fungal pathogens; type: cell-based; conditions: for IC90: Phytophthora capsici, read-out: Concentration at 90% Inhibition Pc
Outline: as §2

[3] = system: Collectotrichum graminicola (Cg); assay: Growth inhibition assay of fungal pathogens; type: cell-based; conditions: 48 h, read-out: Concentration at 90% Inhibition Cg
Outline: as §2

Botrtyis cinerea (Bc) = assay: Growth inhibition assay of fungal pathogens; type: cell-based; conditions: 48 h, read-out: Concentration at 90% Inhibition Bc
Outline: as §1

[4] = system: Fusarium virguliforme (Fv); assay: Growth inhibition assay of fungal pathogens; type: cell-based; conditions: 48 h
Outline: as §2

C. albicans ATCC 90028 = assay: Anti-Fungal (Candida) Activity Assay, broth microtiter MIC; type: cell-based; conditions: read-out: MIC C. albicans ATCC 90028
Outline: (§3)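 In CLSI M27-A3 microtiter plates, yeast from overnight agar culture is inoculated in RPMI 1640–MOPS at a standard-curve density. The MIC is the endpoint scored visually against growth control at 48 h.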

[5] = system: C. parapsilosis ATCC 22019; assay: as above; type: cell-based; conditions: Lodderomyces parapsilosis, read-out: MIC C. parapsilosis ATCC 22019
Outline: as §3

C. krusei ATCC 6258 = assay: as above; type: cell-based; conditions: Pichia kudriavzevii, read-out: MIC C. krusei ATCC 6258
Outline: as §3

human (hACC2) ACC2 = human (hACC2) ACC2 (Homo sapiens, UniProt O00763); assay: In vitro Acetyl-CoA Carboxylase (ACC) inhibition assay (ADP-Glo), hACC2; type: biochemical
Procedure: The detailed procedure is as follows. […] 10 μL ADP glo reagent was added. […] 20 μL kinase detection reagent was added.
“NA” stands for “not assayed.”

[6] = read-out: Concentration at 90% Inhibition Fv, Table 4a, 48 hours
[7] = read-out: Concentration at 90% Inhibition Fv, Table 4b, 48 hours
[8] = Table 4a, 48 hours, read-out: Concentration at 90% Inhibition Fv
[9] = Table 4b, 48 hours, read-out: Concentration at 90% Inhibition Fv
[10] = ATCC90028, 3 replicates, MIC recorded at 48 h
[11] = ATCC22019, 3 replicates, MIC recorded at 48 h
[12] = ATCC6258, 3 replicates, MIC recorded at 48 h

human (hACC2) ACC2, sequence (O00763 whole entry): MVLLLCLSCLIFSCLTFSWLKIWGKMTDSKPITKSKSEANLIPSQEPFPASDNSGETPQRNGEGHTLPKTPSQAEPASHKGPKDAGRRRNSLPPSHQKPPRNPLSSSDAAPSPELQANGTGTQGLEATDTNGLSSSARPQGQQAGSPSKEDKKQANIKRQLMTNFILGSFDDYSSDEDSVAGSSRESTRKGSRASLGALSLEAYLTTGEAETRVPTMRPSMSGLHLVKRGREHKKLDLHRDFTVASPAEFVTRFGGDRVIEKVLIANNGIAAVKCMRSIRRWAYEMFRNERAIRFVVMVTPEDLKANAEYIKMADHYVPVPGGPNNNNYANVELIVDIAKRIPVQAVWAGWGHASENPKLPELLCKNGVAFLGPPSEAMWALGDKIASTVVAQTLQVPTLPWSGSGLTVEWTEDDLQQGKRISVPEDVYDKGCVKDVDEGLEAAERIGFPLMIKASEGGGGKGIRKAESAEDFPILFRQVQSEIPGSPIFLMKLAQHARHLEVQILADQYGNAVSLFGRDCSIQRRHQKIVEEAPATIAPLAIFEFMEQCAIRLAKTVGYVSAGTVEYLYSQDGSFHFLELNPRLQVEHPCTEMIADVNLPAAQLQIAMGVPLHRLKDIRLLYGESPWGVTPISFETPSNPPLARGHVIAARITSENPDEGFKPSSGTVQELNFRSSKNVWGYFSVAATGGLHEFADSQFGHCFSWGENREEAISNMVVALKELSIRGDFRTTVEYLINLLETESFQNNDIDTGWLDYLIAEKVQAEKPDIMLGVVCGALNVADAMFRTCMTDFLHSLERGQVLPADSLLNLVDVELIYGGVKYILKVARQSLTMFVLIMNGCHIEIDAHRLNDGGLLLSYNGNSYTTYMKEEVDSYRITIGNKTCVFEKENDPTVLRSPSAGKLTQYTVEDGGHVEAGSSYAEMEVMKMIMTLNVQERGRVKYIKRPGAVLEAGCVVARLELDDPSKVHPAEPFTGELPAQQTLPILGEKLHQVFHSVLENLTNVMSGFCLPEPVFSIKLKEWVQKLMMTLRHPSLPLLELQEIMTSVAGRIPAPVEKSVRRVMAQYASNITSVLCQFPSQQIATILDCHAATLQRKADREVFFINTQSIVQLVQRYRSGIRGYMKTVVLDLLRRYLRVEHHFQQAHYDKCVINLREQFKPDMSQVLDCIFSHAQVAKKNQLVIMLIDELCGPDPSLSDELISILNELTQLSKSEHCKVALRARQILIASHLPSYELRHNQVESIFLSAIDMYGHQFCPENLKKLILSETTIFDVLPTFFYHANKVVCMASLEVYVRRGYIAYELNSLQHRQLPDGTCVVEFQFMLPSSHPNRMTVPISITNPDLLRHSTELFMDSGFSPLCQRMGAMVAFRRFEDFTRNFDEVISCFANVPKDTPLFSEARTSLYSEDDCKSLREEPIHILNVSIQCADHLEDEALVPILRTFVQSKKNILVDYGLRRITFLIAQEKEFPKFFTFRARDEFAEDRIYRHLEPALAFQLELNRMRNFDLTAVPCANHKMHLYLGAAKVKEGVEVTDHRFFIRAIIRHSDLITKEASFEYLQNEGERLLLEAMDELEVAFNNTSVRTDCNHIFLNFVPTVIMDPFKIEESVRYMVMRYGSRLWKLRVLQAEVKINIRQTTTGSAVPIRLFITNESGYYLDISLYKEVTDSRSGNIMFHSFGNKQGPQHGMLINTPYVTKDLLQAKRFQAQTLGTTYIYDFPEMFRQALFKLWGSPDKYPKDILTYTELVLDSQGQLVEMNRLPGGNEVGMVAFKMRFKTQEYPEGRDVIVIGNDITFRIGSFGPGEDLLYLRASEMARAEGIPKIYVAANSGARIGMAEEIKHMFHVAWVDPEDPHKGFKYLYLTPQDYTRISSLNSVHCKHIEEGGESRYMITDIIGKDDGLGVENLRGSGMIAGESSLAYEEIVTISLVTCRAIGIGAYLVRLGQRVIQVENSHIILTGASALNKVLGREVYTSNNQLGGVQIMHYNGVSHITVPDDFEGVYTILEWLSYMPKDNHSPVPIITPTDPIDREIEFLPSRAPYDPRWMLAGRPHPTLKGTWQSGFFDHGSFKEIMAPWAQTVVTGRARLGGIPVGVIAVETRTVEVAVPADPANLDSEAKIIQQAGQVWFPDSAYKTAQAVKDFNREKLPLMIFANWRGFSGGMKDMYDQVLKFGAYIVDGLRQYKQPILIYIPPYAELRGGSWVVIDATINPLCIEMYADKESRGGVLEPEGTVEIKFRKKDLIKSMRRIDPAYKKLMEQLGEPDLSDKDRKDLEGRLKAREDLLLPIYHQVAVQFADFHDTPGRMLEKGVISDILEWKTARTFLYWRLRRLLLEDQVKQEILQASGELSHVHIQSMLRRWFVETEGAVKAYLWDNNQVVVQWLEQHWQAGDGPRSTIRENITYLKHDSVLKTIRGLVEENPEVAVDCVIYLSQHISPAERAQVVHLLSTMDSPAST
fungal (fACC2) ACC2, sequence (Q00955 whole entry): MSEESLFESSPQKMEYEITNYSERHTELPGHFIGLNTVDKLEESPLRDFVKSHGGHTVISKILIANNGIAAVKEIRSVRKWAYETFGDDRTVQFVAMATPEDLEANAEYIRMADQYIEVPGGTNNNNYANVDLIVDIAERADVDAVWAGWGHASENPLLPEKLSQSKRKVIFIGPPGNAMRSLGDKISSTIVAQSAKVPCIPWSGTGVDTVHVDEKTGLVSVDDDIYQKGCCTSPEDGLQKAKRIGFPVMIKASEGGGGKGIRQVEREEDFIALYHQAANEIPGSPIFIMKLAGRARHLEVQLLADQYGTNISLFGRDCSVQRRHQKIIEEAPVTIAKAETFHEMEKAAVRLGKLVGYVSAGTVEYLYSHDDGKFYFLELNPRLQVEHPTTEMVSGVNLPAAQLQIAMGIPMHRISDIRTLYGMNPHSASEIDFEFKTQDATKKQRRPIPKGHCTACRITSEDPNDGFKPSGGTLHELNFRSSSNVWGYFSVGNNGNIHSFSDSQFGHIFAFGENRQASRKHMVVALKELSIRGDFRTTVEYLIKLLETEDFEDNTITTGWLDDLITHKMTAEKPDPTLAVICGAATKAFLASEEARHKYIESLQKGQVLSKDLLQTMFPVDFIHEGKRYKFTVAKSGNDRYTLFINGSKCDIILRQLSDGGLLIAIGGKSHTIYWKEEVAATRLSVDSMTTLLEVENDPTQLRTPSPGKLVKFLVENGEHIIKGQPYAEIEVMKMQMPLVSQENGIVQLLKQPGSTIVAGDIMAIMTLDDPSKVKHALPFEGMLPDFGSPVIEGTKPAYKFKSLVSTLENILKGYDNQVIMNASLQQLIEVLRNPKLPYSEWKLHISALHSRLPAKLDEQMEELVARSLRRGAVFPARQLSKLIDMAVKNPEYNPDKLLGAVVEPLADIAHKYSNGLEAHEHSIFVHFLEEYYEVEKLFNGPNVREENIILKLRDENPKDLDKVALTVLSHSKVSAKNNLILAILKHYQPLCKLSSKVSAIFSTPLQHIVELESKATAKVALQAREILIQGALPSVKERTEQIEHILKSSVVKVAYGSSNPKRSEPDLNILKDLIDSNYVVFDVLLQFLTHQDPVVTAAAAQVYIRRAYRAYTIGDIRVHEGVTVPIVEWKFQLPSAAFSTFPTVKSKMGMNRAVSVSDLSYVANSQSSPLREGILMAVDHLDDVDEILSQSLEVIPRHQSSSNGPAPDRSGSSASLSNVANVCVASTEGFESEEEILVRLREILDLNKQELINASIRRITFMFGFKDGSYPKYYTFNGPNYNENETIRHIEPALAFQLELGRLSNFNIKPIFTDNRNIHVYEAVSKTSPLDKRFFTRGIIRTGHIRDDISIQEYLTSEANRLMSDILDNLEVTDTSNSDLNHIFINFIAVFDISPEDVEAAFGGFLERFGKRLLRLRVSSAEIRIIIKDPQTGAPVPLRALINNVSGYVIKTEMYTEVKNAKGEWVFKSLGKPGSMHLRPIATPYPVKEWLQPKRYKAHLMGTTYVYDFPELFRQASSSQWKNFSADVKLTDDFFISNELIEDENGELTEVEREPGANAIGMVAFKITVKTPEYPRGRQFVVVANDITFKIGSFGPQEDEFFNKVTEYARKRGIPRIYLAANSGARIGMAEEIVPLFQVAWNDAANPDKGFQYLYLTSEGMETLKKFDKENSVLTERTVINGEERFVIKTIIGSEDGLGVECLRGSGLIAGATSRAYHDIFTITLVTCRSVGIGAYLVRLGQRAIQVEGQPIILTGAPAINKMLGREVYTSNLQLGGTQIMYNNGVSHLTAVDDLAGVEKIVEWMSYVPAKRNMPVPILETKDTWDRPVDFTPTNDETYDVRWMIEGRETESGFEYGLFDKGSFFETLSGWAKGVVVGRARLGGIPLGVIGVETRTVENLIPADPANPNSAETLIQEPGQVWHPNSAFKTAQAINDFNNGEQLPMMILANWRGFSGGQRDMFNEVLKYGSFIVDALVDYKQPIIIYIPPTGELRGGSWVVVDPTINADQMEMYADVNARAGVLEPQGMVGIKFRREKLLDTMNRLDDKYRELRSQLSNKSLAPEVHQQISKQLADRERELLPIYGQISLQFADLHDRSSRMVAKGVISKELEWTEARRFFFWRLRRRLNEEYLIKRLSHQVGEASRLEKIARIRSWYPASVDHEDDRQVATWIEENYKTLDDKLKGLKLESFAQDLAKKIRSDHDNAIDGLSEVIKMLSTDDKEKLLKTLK

| Compound | IC50 (fungal (fACC2) ACC2) | IC90 [1] | Concentration at 90% Inhibition Fm ([1]; Table 4b, 48 hours) | IC90 (Septoria tritici (St); 48 h, Table 4a) | IC90 (Septoria tritici (St); 48 h, Table 4b) | IC90 (Rhizoctonia solani (Rs); Table 4a) | IC90 (Rhizoctonia solani (Rs); Table 4b) | IC90 (Diplodia maydis (Dm); Table 4a) | IC90 (Diplodia maydis (Dm); Table 4b) | IC90 ([2]; 48 h, Table 4a) | IC90 ([2]; 48 h, Table 4b) | IC90 ([3]; Table 4a) | IC90 ([3]; Table 4b) | IC90 (Botrtyis cinerea (Bc); Table 4a) | IC90 (Botrtyis cinerea (Bc); Table 4b) | IC90 [4, 6] | IC90 [4, 7] | MIC (C. albicans ATCC 90028; ATCC90028, 48 h) | MIC ([5]; ATCC22019, 48 h) | IC50 (human (hACC2) ACC2) | further results |
| --- | --- | --- | --- | --- | --- | --- | --- | --- | --- | --- | --- | --- | --- | --- | --- | --- | --- | --- | --- | --- | --- |
| COc1ccc(F)cc1[C@H](Cn1c(=O)n(C(C)(C)C(=O)NC(C)C)c(=O)c2c(C)c(-n3cccn3)sc21)OC[C@H](C)O [Compound I-38, 2-(1-((R)-2-(5-fluoro-2-methoxyphenyl)-2-((S)-2-hydroxy-propoxy)ethyl)-5-methyl-2,4-dioxo-6-(1H-pyrazol-1-yl)-1,4-dihydrothieno[2,3-d]pyrimidin-3(2H)-yl)-N-isopropyl-2-methylpropanamide] | 0.6 to 3 nM | 0.4 µg/mL (≈ 0.665 µM) | A (“A” provided a compound concentration of 0.4 ppm at 90% inhibition of fungal pathogens) | > 50 µg/mL | > 50 µg/mL | 10 µg/mL (≈ 16.6 µM) | 2 µg/mL (≈ 3.32 µM) | > 50 µg/mL | 10 µg/mL (≈ 16.6 µM) | > 50 µg/mL | > 50 µg/mL | > 50 µg/mL | 10 µg/mL (≈ 16.6 µM) | 2 µg/mL (≈ 3.32 µM) | 2 µg/mL (≈ 3.32 µM) | 2 µg/mL (≈ 3.32 µM) | 2 µg/mL (≈ 3.32 µM) | > 4.1 µg/mL | > 4.1 µg/mL | 10 to 40 nM | MIC (C. krusei ATCC 6258; ATCC6258, 48 h): 2.1 to 4 µg/mL (≈ 3.49 to 6.65 µM) |
| COc1ccc(F)cc1[C@H](Cn1c(=O)n(C(C)(C)C(=O)NC(C)C)c(=O)c2c(C)c(-n3cccn3)sc21)OC[C@@H](C)O [Compound I-39, 2-(1-((R)-2-(5-fluoro-2-methoxyphenyl)-2-((R)-2-hydroxy-propoxy)ethyl)-5-methyl-2,4-dioxo-6-(1H-pyrazol-1-yl)-1,4-dihydrothieno[2,3-d]pyrimidin-3(2H)-yl)-N-isopropyl-2-methylpropanamide] | 0.6 to 3 nM | 0.4 µg/mL (≈ 0.665 µM) | A (“A” provided a compound concentration of 0.4 ppm at 90% inhibition of fungal pathogens) | > 50 µg/mL | 10 µg/mL (≈ 16.6 µM) | 0.4 µg/mL (≈ 0.665 µM) | 0.4 µg/mL (≈ 0.665 µM) | 10 µg/mL (≈ 16.6 µM) | 2 µg/mL (≈ 3.32 µM) | > 50 µg/mL | 10 µg/mL (≈ 16.6 µM) | 0.4 µg/mL (≈ 0.665 µM) | 0.4 µg/mL (≈ 0.665 µM) | 2 µg/mL (≈ 3.32 µM) | 2 µg/mL (≈ 3.32 µM) | > 50 µg/mL | 2 µg/mL (≈ 3.32 µM) | > 4.1 µg/mL | > 4.1 µg/mL | 3 to 10 nM | MIC (C. krusei ATCC 6258; ATCC6258, 48 h): 2.1 to 4 µg/mL (≈ 3.49 to 6.65 µM) |
| COc1ccc(F)cc1[C@H](Cn1c(=O)n(C(C)(C)C(=O)N2CCCC2)c(=O)c2c(C)c(-n3cccn3)sc21)OC[C@H](C)O [Compound I-40, 1-((R)-2-(5-fluoro-2-methoxyphenyl)-2-((S)-2-hydroxy-propoxy)ethyl)-5-methyl-3-(2-methyl-1-oxo-1-(pyrrolidin-1-yl)propan-2-yl)-6-(1H-pyrazol-1-yl)thieno[2,3-d]pyrimidine-2,4(1H,3H)-dione] | 0.6 to 3 nM |  |  |  |  | 10 µg/mL (≈ 16.3 µM) | 2 µg/mL (≈ 3.26 µM) | > 50 µg/mL | > 50 µg/mL |  |  | > 50 µg/mL | 10 µg/mL (≈ 16.3 µM) | > 50 µg/mL | 10 µg/mL (≈ 16.3 µM) |  |  |  |  | 10 to 40 nM | IC90 ([1]; Table 4a, 48 hours): 2 µg/mL (≈ 3.26 µM); IC90 ([1]; Table 4b, 48 hours): 2 µg/mL (≈ 3.26 µM); Concentration at 90% Inhibition St (Septoria tritici (St); Table 4b, 48 hours): D (“D” provided a compound concentration of >50 ppm at 90% inhibition of fungal pathogens); IC90 (Septoria tritici (St); Table 4a, 48 hours): > 50 µg/mL; IC90 ([2]; Table 4a, 48 hours): > 50 µg/mL; Concentration at 90% Inhibition Pc ([2]; Table 4b, 48 hours): D (“D” provided a compound concentration of >50 ppm at 90% inhibition of fungal pathogens); IC90 [4, 8]: > 50 µg/mL; IC90 [4, 9]: 10 µg/mL (≈ 16.3 µM); MIC (C. albicans ATCC 90028; [10]): > 4.1 µg/mL; MIC [5, 11]: 2.1 to 4 µg/mL (≈ 3.42 to 6.52 µM); MIC (C. krusei ATCC 6258; [12]): 0.25 to 1 µg/mL (≈ 0.407 to 1.63 µM) |
| COc1ccc(F)cc1[C@H](Cn1c(=O)n(C(C)(C)C(=O)NC(C)C)c(=O)c2c(C)c(-n3cccn3)sc21)OCC(C)(C)O [Compound I-41, (R)-2-(1-(2-(5-fluoro-2-methoxyphenyl)-2-(2-hydroxy-2-methylpropoxy)ethyl)-5-methyl-2,4-dioxo-6-(1H-pyrazol-1-yl)-1,4-dihydro-thieno[2,3-d]pyrimidin-3(2H)-yl)-N-isopropyl-2-methylpropanamide] | 0.6 to 3 nM | 0.4 µg/mL (≈ 0.65 µM) | A (“A” provided a compound concentration of 0.4 ppm at 90% inhibition of fungal pathogens) | > 50 µg/mL | 10 µg/mL (≈ 16.2 µM) | 10 µg/mL (≈ 16.2 µM) | 2 µg/mL (≈ 3.25 µM) | 10 µg/mL (≈ 16.2 µM) | 2 µg/mL (≈ 3.25 µM) | > 50 µg/mL | > 50 µg/mL | 2 µg/mL (≈ 3.25 µM) | 2 µg/mL (≈ 3.25 µM) | 2 µg/mL (≈ 3.25 µM) | 2 µg/mL (≈ 3.25 µM) | 0.4 µg/mL (≈ 0.65 µM) | 0.4 µg/mL (≈ 0.65 µM) | > 4.1 µg/mL | > 4.1 µg/mL | 3 to 10 nM | MIC (C. krusei ATCC 6258; ATCC6258, 48 h): > 4.1 µg/mL |
| COc1ccc(F)cc1[C@H](Cn1c(=O)n(C(C)(C)C(=O)N2CCCC2)c(=O)c2c(C)c(-n3cccn3)sc21)OCC(C)(C)O [Compound I-42, (R)-1-(2-(5-fluoro-2-methoxyphenyl)-2-(2-hydroxy-2-methylpropoxy)ethyl)-5-methyl-3-(2-methyl-1-oxo-1-(pyrrolidin-1-yl)propan-2-yl)-6-(1H-pyrazol-1-yl)thieno[2,3-d]pyrimidine-2,4(1H,3H)-dione] | 0.6 to 3 nM |  |  |  |  | 10 µg/mL (≈ 15.9 µM) | 2 µg/mL (≈ 3.19 µM) | > 50 µg/mL | 10 µg/mL (≈ 15.9 µM) |  |  | > 50 µg/mL | 10 µg/mL (≈ 15.9 µM) | > 50 µg/mL | 10 µg/mL (≈ 15.9 µM) |  |  |  |  | 3 to 10 nM | IC90 ([1]; Table 4a, 48 hours): 0.4 µg/mL (≈ 0.637 µM); IC90 ([1]; Table 4b, 48 hours): 0.4 µg/mL (≈ 0.637 µM); Concentration at 90% Inhibition St (Septoria tritici (St); Table 4b, 48 hours): D (“D” provided a compound concentration of >50 ppm at 90% inhibition of fungal pathogens); IC90 (Septoria tritici (St); Table 4a, 48 hours): > 50 µg/mL; IC90 ([2]; Table 4a, 48 hours): > 50 µg/mL; Concentration at 90% Inhibition Pc ([2]; Table 4b, 48 hours): D (“D” provided a compound concentration of >50 ppm at 90% inhibition of fungal pathogens); IC90 [4, 8]: > 50 µg/mL; IC90 [4, 9]: 10 µg/mL (≈ 15.9 µM); MIC (C. albicans ATCC 90028; [10]): 2.1 to 4 µg/mL (≈ 3.35 to 6.37 µM); MIC [5, 11]: > 4.1 µg/mL; MIC (C. krusei ATCC 6258; [12]): 2.1 to 4 µg/mL (≈ 3.35 to 6.37 µM) |
| COCCO[C@@H](Cn1c(=O)n(C(C)(C)C(=O)NC(C)C)c(=O)c2c(C)c(-n3cccn3)sc21)c1cc(F)ccc1OC [Compound I-43, (R)-2-(I-(2-(5-fluoro-2-methoxyphenyl)-2-(2-methoxy-ethoxy)ethyl)-5-methyl-2,4-dioxo-6-(1H-pyrazol-1-yl)-1,4-dihydrothieno[2,3-d]pyrimidin-3(2H)-yl)-N-isopropyl-2-methylpropanamide] | 0.6 to 3 nM | 2 µg/mL (≈ 3.32 µM) | B (“B” provided a compound concentration of 2.0 ppm at 90% inhibition of fungal pathogens) | > 50 µg/mL | > 50 µg/mL | > 50 µg/mL | 10 µg/mL (≈ 16.6 µM) | > 50 µg/mL | 10 µg/mL (≈ 16.6 µM) | > 50 µg/mL | > 50 µg/mL | > 50 µg/mL | > 50 µg/mL | > 50 µg/mL | 10 µg/mL (≈ 16.6 µM) | 2 µg/mL (≈ 3.32 µM) | 2 µg/mL (≈ 3.32 µM) | 1.1 to 2 µg/mL (≈ 1.83 to 3.32 µM) | 2.1 to 4 µg/mL (≈ 3.49 to 6.65 µM) | 10 to 40 nM | MIC (C. krusei ATCC 6258; ATCC6258, 48 h): 0.25 to 1 µg/mL (≈ 0.415 to 1.66 µM) |
